In ChEMBL document CHEMBL3758177, “Synthesis and biological evaluation of novel phosphoramidate derivatives of coumarin as chitin synthase inhibitors and antifungal agents” (Eur J Med Chem, 2016) one finds MIC, IC50 and inhibition data, which are given here for nine compounds.

Experiment [1] deals with Aspergillus fumigatus. In words: Antifungal activity against Aspergillus fumigatus GIMCC 3.19 after 24 hrs by two-fold serial dilution method. It counts as functional. To be noted: GIMCC 3.19, 24 h.
Experiment [2] in a line: Inhibition of Candida tropicalis ATCC 750 chitin synthase using UDP-GlcNAc as substrate after 60 mins by microplate reader method.
The subject of experiment [3] is Staphylococcus aureus. The experiment can be described thus: Antibacterial activity against Staphylococcus aureus ATCC 25923 after 24 hrs by two-fold serial dilution method. It counts as functional. To be noted: ATCC 25923, 24 h.
In experiment [4] the test system is Candida albicans. The experiment can be described thus: Antifungal activity against Candida albicans CMCC 76615 after 24 hrs by two-fold serial dilution method. It counts as functional. Particulars: CMCC 76615, 24 h.
The subject of experiment [5] is Pseudomonas aeruginosa. The experiment can be described thus: Antibacterial activity against Pseudomonas aeruginosa ATCC 9027 after 24 hrs by two-fold serial dilution method. It counts as functional. Particulars: ATCC 9027, 24 h.
In experiment [6] the test system is Candida tropicalis. The experiment can be described thus: Inhibition of Candida tropicalis ATCC 750 chitin synthase using UDP-GlcNAc as substrate at 300 ug/ml after 60 mins by microplate reader method.
Experiment [7] relates to Aspergillus flavus. In words: Antifungal activity against Aspergillus flavus ATCC 16870 after 24 hrs by two-fold serial dilution method. It counts as functional. To be noted: ATCC 16870, 24 h.
Experiment [8] deals with Proteus vulgaris. In words: Antibacterial activity against Proteus vulgaris ATCC 8427 after 24 hrs by two-fold serial dilution method. It counts as functional. To be noted: ATCC 8427, 24 h.
Experiment [9] deals with Escherichia coli. In words: Antibacterial activity against Escherichia coli JM 109 after 24 hrs by two-fold serial dilution method. It counts as functional. Particulars: JM 109, 24 h.
The test system of experiment [10] is Staphylococcus aureus. In words: Antibacterial activity against Methicillin-resistant Staphylococcus aureus N 315 after 24 hrs by two-fold serial dilution method. It counts as functional. To be noted: N 315, 24 h.
Experiment [11] has as its system Bacillus spizizenii. In words: Antibacterial activity against Bacillus subtilis ATCC 6633 after 24 hrs by two-fold serial dilution method. It counts as functional. Particulars: ATCC 6633, 24 h.
The subject of experiment [12] is Cryptococcus neoformans. The experiment can be described thus: Antifungal activity against Cryptococcus neoformans ATCC 32719 after 24 hrs by two-fold serial dilution method. It counts as functional. Particulars: ATCC 32719, 24 h.

Converted amounts (≈) assume the structure as drawn.

What is called MIC is the lowest concentration found to suppress growth. As a reminder, the IC50 is the midpoint of a concentration-inhibition curve. As usually defined, the inhibition is how much of the control response was suppressed. Lower therefore signals little suppression. Consider `COC(=O)C(C)NP(=O)(OCCN(C)c1cc(=O)oc2ccc(C(C)(C)C)cc12)Oc1ccccc1` (stereo not given), for which the MIC in [1] amounted to 64 mg/L (≈ 124 µM); in [3] it was 64 mg/L (≈ 124 µM); in experiment [4], 64 mg/L (≈ 124 µM); in experiment [5], 16 mg/L (≈ 31 µM); in [7], 16 mg/L (≈ 31 µM); in experiment [8] it was 16 mg/L (≈ 31 µM). Further, the minimum inhibitory concentration (MIC) came out at 16 mg/L (≈ 31 µM) in [9], 1 mg/L (≈ 1.94 µM) in experiment [10], 16 mg/L (≈ 31 µM) in experiment [11] and 64 mg/L (≈ 124 µM) in experiment [12]. The compound also came in with an IC50 in [2] of 170 µM. Further, the inhibition in experiment [6] amounted to 62%.

As to `COC(=O)CNP(=O)(OCCN(C)c1cc(=O)oc2ccc(C(C)(C)C)cc12)Oc1ccccc1` (stereo not given), the MIC in experiment [1] is 32 mg/L (≈ 63.7 µM); in experiment [3], 64 mg/L (≈ 127 µM); in experiment [4], 64 mg/L (≈ 127 µM); in experiment [5], 16 mg/L (≈ 31.8 µM); in experiment [7] it was 64 mg/L (≈ 127 µM); in experiment [8], 64 mg/L (≈ 127 µM). Besides, the MIC in [9] was 64 mg/L (≈ 127 µM); in experiment [10] it was 8 mg/L (≈ 15.9 µM); in experiment [11], 16 mg/L (≈ 31.8 µM); in experiment [12] it was 32 mg/L (≈ 63.7 µM). Further, half-maximal inhibition in experiment [2] (IC50) required 620 µM. For the same compound, the inhibition in experiment [6] is 50%.

For `CC1COc2c(N3CCN(C)CC3)c(F)cc3c(=O)c(C(=O)O)cn1c23` (stereo not given) [OFLOXACIN], the MIC in [3] amounted to 1 mg/L (≈ 2.77 µM); in experiment [5] it was 0.25 mg/L (≈ 0.692 µM); in experiment [8], 0.25 mg/L (≈ 0.692 µM); in experiment [9], 0.25 mg/L (≈ 0.692 µM); in experiment [10] it was 1 mg/L (≈ 2.77 µM); in experiment [11], 0.25 mg/L (≈ 0.692 µM).

Consider `COC(=O)C(Cc1ccccc1)NP(=O)(OCCN(C)c1cc(=O)oc2cc(C)ccc12)Oc1ccccc1` (stereo not given), for which the MIC came out at 64 mg/L (≈ 116 µM) in experiment [1]; 32 mg/L (≈ 58.1 µM) in experiment [3]; 64 mg/L (≈ 116 µM) in experiment [4]; 128 mg/L (≈ 232 µM) in experiment [5]; 1 mg/L (≈ 1.82 µM) in [7]; 16 mg/L (≈ 29.1 µM) in [8]. Besides, the MIC in experiment [9] was 16 mg/L (≈ 29.1 µM); in [10], 2 mg/L (≈ 3.63 µM); in experiment [11], 16 mg/L (≈ 29.1 µM); in experiment [12], 32 mg/L (≈ 58.1 µM). The compound further registered an IC50 in experiment [2] of 300 µM. The inhibition in experiment [6] is 56%.

Regarding `COC(=O)C(C)NP(=O)(OCCN(C)c1cc(=O)oc2cc(C)ccc12)Oc1ccccc1` (stereo not given), the MIC in [1] came out at 128 mg/L (≈ 270 µM); in experiment [3] it was 128 mg/L (≈ 270 µM); in [4], 128 mg/L (≈ 270 µM); in experiment [5] it was 256 mg/L (≈ 540 µM); in experiment [7], 64 mg/L (≈ 135 µM); in experiment [8], 256 mg/L (≈ 540 µM). In addition, the MIC was determined as 128 mg/L (≈ 270 µM) in [9], 256 mg/L (≈ 540 µM) in [10], 256 mg/L (≈ 540 µM) in experiment [11] and 128 mg/L (≈ 270 µM) in experiment [12]. In [6], this compound displayed an inhibition of 45%.

For `COC(=O)C(C)NP(=O)(OCCN(C)c1cc(=O)oc2ccccc12)Oc1ccccc1` (stereo not given), the MIC in experiment [1] was found to be 32 mg/L (≈ 69.5 µM); in experiment [3], 512 mg/L (≈ 1110 µM); in [4] it was 32 mg/L (≈ 69.5 µM); in [5] it was 512 mg/L (≈ 1110 µM); in [7], 64 mg/L (≈ 139 µM); in [8], 512 mg/L (≈ 1110 µM). Moreover, the MIC in experiment [9] was 512 mg/L (≈ 1110 µM); in experiment [10], 512 mg/L (≈ 1110 µM); in experiment [11], 512 mg/L (≈ 1110 µM); in [12], 8 mg/L (≈ 17.4 µM). In addition, in [2], it took 150 µM to reach half-maximal inhibition (IC50). In [6], this compound gave an inhibition of 77%.

Consider `COC(=O)C(C)NP(=O)(OCCN(C)c1cc(=O)oc2ccc(C)cc12)Oc1ccccc1` (stereo not given), for which the MIC was found to be 64 mg/L (≈ 135 µM) in experiment [1]; 256 mg/L (≈ 540 µM) in experiment [3]; 64 mg/L (≈ 135 µM) in experiment [4]; 512 mg/L (≈ 1080 µM) in experiment [5]; 128 mg/L (≈ 270 µM) in experiment [7]; 512 mg/L (≈ 1080 µM) in experiment [8]. Also, the MIC amounted to 16 mg/L (≈ 33.7 µM) in [9], 256 mg/L (≈ 540 µM) in experiment [10], 256 mg/L (≈ 540 µM) in experiment [11] and 32 mg/L (≈ 67.4 µM) in experiment [12]. In experiment [2], this compound registered an IC50 of 260 µM. Moreover, the inhibition in [6] was determined as 61%.

In the case of `COC(=O)C(Cc1ccccc1)NP(=O)(OCCN(C)c1cc(=O)oc2c(C)cccc12)Oc1ccccc1` (stereo not given), the MIC is 128 mg/L (≈ 232 µM) in [1]; 256 mg/L (≈ 465 µM) in experiment [3]; 128 mg/L (≈ 232 µM) in [4]; 128 mg/L (≈ 232 µM) in experiment [5]; 64 mg/L (≈ 116 µM) in [7]; 256 mg/L (≈ 465 µM) in experiment [8]. The MIC in experiment [9] was 256 mg/L (≈ 465 µM); in experiment [10], 1 mg/L (≈ 1.82 µM); in [11] it was 16 mg/L (≈ 29.1 µM); in experiment [12], 64 mg/L (≈ 116 µM). The inhibition in experiment [6] came to 48%.

Turning to `COC(=O)C(NP(=O)(OCCN(C)c1cc(=O)oc2ccc(C(C)(C)C)cc12)Oc1ccccc1)C(C)C` (stereo not given), the MIC is 64 mg/L (≈ 118 µM) in experiment [1]; 32 mg/L (≈ 58.8 µM) in experiment [3]; 64 mg/L (≈ 118 µM) in experiment [4]; 32 mg/L (≈ 58.8 µM) in [5]; 2 mg/L (≈ 3.67 µM) in experiment [7]; 32 mg/L (≈ 58.8 µM) in [8]. The MIC is 16 mg/L (≈ 29.4 µM) in experiment [9], 16 mg/L (≈ 29.4 µM) in experiment [10], 16 mg/L (≈ 29.4 µM) in experiment [11] and 32 mg/L (≈ 58.8 µM) in experiment [12]. Moreover, the IC50 in experiment [2] worked out at 180 µM. Besides, the inhibition in experiment [6] was 62%.
